Assay results: PMC7853623, “Dose- and time-dependent tolerability and efficacy of organo-osmium complex FY26 and its tissue pharmacokinetics in hepatocarcinoma-bearing mice” (Metallomics: Integrated Biometal Science, 2020)

Key:
[1] = tested on: A2780 ovarian cancer cells; assay: In vitro growth inhibition assay (SRB), A2780; format: cell-based; settings: A2780, 24 h exposure, 72 h recovery
Description: Dulbecco's modified Eagle's medium (DMEM) cell culture media, penicillin/streptomycin, foetal bovine serum, L-glutamine, phosphate-buffered saline (PBS) solution, and trypsin/EDTA were all purchased from Thermo Fisher (Loughborough, UK). DMEM was supplemented with 10% foetal bovine serum, 1% penicillin/streptomycin, and 2 mM L-glutamine. Cancer cell lines (A2780 and A549) were purchased from the European Collection of Cell Cultures (Salisbury, UK). Cell cultures were grown in T-75 or T-175 culture flasks as adherent monolayers. The cells were passaged two to three times per week whenever confluence reached 80–90%, using 0.25% trypsin/EDTA. Cell cultures were stored in an incubator at 37°C with a 5% CO2 humidified atmosphere.
Five thousand A2780 or A549 cells were seeded per well in 96-well plates. The cells were pre-incubated in drug-free media at 37°C for 48 h before adding a range of concentrations (0.01–100 µM) of the complexes to be tested. Typically, the complex was dissolved in dimethyl sulfoxide (DMSO) at 2 mM concentration, and then diluted with cell culture medium to give a 100 µM stock solution with 5% (v/v) DMSO. […] Absorbance measurements of the solubilized dye (Thermo Scientific Multiskan FC with SkanIt software 4.1 for Windows using a 470 nm filter) allowed the determination of viable treated cells compared to untreated controls. […]

[2] = Comparative maximum aqueous solubility study (ICP-OES); format: physicochemical; settings: doubly deionized water, 24 h shaking, ambient 18–20°C, mean ± SD of N = 3
Description: One to five milligrams of FY26⋅PF6 or FY26⋅I, and 180 mg of FY26⋅Cl were dispensed into Falcon tubes in triplicates, then 1 ml of doubly deionized water (DDIW) was added. The Falcon tubes were placed on a Vibrax VXB basic shaker (Sigma-Aldrich, Dorset, UK) for 24 h at a speed of […] (ambient temperature 18–20°C), and were checked at intervals (further solids were added if total saturation appeared to occur). The samples were filtered through syringe filters (PTFE, 0.45 µm, 4 mm) to remove any undissolved solids. The concentrations of Os in the solutions were measured using inductively coupled plasma-optical emission spectroscopy (ICP-OES) (Agilent, Stockport, UK).
Analyses of FY26 solutions were carried out on a Perkin-Elmer (optical emission spectrometer) Optima 5300 DV instrument. All samples and standards were prepared fresh on the day in DDIW with distilled HNO3 (3.2%), thiourea (5 mM), and ascorbic acid (0.1 g/l). The osmium standard was diluted to the following concentrations for the calibration curve: 0, 25, 50, 100, 200, 400, 600, 800, and 1000 ppb. The samples were diluted by serial dilutions of typically 1 in 10 until their concentrations fitted within the calibration range and % total dissolved solids were below 0.2%. Samples were prepared in triplicates and the Os optical emissions at 228.226 and 225.585 nm were detected and integrated.

## CN(C)c1ccc(N=Nc2ccccn2)cc1.Cc1ccc(C(C)C)cc1.[Cl-].[I-].[Os+2] [FY26⋅Cl]
[1]
  difference in anticancer (antiproliferative) activity between X = Cl and X = PF6: lack of any statistically significant difference
[2]
  maximum aqueous solubility: 215 (±10) mM
